Experiment: Human HepG2 cell viability assay in 384 well format
Format: toxicity, cell-based
Parameters: dose 125 nL, time 70.5 hour; concentration not given beside the values
Conditions: HepG2 cells, read-out: Inhibition

Compound | cytotoxicity at 70.5 h
CC(C)NC(=O)c1cc2c(s1)CCN2c1ncccn1 | 3.85%
O=C(c1ccccc1)N1CCO[C@@H]2CNC[C@@H]21 | -5.73%
COCCNC(=O)C[C@@H]1COC[C@H]2CN(C(=O)COC)C[C@@H]12 | -8.18%
CCn1nnc2c1C(COC)CN(Cc1ccco1)C2 (centres undefined) | 39.7%
O=C(c1ccoc1)N1Cc2cnn(CC3CC3)c2C(COCC2CC2)C1 (centres undefined) | 16%
O=C(NC1CC1)N1C[C@@H]2CCN(C(=O)c3cscn3)[C@@H]2C1 | 10.3%
CCN1Cc2ccccc2CC2(CCN(CC3CCC3)CC2)C1=O | 11.7%
Cc1cc(C(=O)NC2CCc3c(ccc(=O)n3CC3CC3)C2)no1 (centres undefined) | -6.82%
CCS(=O)(=O)N1CCN(CCOC)c2ncccc2C1 | -4.33%
Cn1nccc1-c1ncc(-c2cc(C(=O)O)n(CC3CC3)c2)cn1 | 6.58%
Cn1ccnc1CN1CCC2(CC1)CC(N1CCCC1)c1ccccc12 (centres undefined) | -4.57%
Cn1cc(-c2cnc(-c3ccnn3C)nc2)cc1C(=O)NC1CC1 | -4.34%
CS(=O)(=O)N1C[C@@H]2CCN(C(=O)c3cscn3)[C@@H]2C1 | -2.23%
COCCN1CCN(S(=O)(=O)C2CC2)Cc2cccnc21 | -5.48%
Cn1cc(CN2CCc3ccc(=O)n(CC4CC4)c3CC2)cn1 | 4.08%
Cc1cn2c(=O)c(-c3ccnc(N[C@@H](C)CO)n3)cnc2s1 | -5.83%
COCCN1CC(=O)c2sc(NCc3ccccc3)nc2C1 | 0.849%
OC[C@@H]1CCCN1c1nccc(-c2c[nH]nc2-c2ccncc2)n1 | -2.39%
COc1ccc2[nH]cc(-c3ccnc(N4CCC(C)CC4)n3)c2c1 | 1.51%
NS(=O)(=O)NCc1cc(-c2ccco2)n(CC(F)(F)F)n1 | -5.08%
Cc1ncc(-c2ccnc(N[C@@H](C)CO)n2)c(C2CCCCC2)n1 | 24.8%
O=c1c(-c2ccnc(N3CCC[C@H]3CO)n2)cnc2sccn12 | -1.75%

Compound | cytotoxicity at 70.5 h
CCNc1nc2c(s1)C(=O)CN(C(=O)NCc1ccccc1)C2 | -0.493%
CC(C)NC(=O)N1CC(=O)c2sc(NC3CCCCC3)nc2C1 | 3.79%
OCCNc1nccc(-c2cn3nccc3nc2C2CCCCC2)n1 | -8.52%
COc1cccc(OC)c1-c1ccnc2cc(CC(=O)N(C)C)nn12 | -11.5%
CC(=O)Nc1nc(C)c(S(=O)(=O)NCCc2ccccn2)s1 | -3.16%
CC(=O)Nc1nc(C)c(S(=O)(=O)NCCc2cccnc2)s1 | 1.62%
CC(=O)N1CCC(n2nccc2-c2cnc(N3CCCC3)nc2)CC1 | -9%
Cc1cn2c(=O)c(-c3ccnc(N4CCC[C@@H]4CO)n3)cnc2s1 | -3.36%
COCCCNc1nc(CNC(=O)C2CCC2)cc(-c2ccco2)n1 | -5.78%
CC(=O)N1CCC(n2nccc2-c2cnc(N(C)CCO)nc2)CC1 | -6.31%
c1cc(-c2cn3nccc3nc2C2CCCCC2)nc(N2CCCC2)n1 | -7.05%
NC(=O)[C@H]1CCCN(c2nccc(-c3c[nH]nc3-c3cccnc3)n2)C1 | -2.79%
COc1cccc(OC)c1-c1ccnc2cc(CC(=O)NC(C)C)nn12 | -7.86%
CC(C)[C@H](NS(C)(=O)=O)C(=O)NCc1cc(-c2ccco2)nn1C | 7.38%
CN(CCO)c1ncc(-c2ccc(NC(=O)[C@@H]3CCCCN3)cc2)cn1 | -1.72%
CC[C@@H](C)[C@@H](N)C(=O)Nc1cccc(-c2cnc(N(C)CCO)nc2)c1 | -6.3%
CNc1nc2c(s1)C(=O)CN(C(=O)[C@@H](N)Cc1cccc(OC)c1)C2 | -5.78%
CC[C@H](C)[C@H](N)C(=O)N1CC(=O)c2sc(NCc3ccccc3)nc2C1 | 7.34%
CC[C@H](C)[C@H](N)C(=O)Nc1nc(-c2cnc(N3CCOCC3)nc2)cs1 | -1.59%
CC(C)[C@H](NS(C)(=O)=O)C(=O)NCc1cc(-c2cccc(Cl)c2)nn1C | 6.72%
Cc1[nH]c2ccccc2c1-c1ccnc(NC[C@H](O)CO)n1 | 26.8%
CC[C@H](C)Nc1nccc(-c2cnc3sc(C)c(C)n3c2=O)n1 | 23.3%

Compound | cytotoxicity at 70.5 h
Cc1csc2ncc(-c3ccnc(N4CCN(C)CC4)n3)c(=O)n12 | 24.1%
CN1CCCN(c2nccc(-c3c[nH]nc3C3CCCCC3)n2)CC1 | -3.95%
Cc1ncc(-c2ccnc(N3CCCCCC3)n2)c(-c2cccnc2)n1 | -10.6%
CC(C)[C@H]1COC(=O)N1Cc1nncn1C(C)C | -7.29%
CCCOC(=O)N1CCn2nc(-c3nc4ccccc4n3C)cc2C1 | -5.25%
CCNc1ncc(CN2C[C@@H](CN3CCC(CO)CC3)[C@@H](CO)C2)cn1 | -2.73%
CN1CC2(CCN(C(=O)COc3ccc(Cl)cc3Cl)CC2)OC1=O | 14.5%
c1ccc(-c2nc(CCNc3nnc(C4CCC4)o3)no2)cc1 | 15.9%
COCC(=O)Nc1ccccc1Sc1c(C)n[nH]c1C | 25.1%
CN(C)CCCN1CC2(CCN(C3CCCOC3)CC2)OC1=O (centres undefined) | -6.54%
CC(C)(C)NC(=O)CN1CCCC(c2ccc(C(=O)O)cc2)C1 (centres undefined) | 0.492%
CCCn1cc(-c2ccnc(NC3CCc4ccccc4C3)n2)c(C)n1 (centres undefined) | 19.3%
CN(Cc1ccccn1)c1nccc(N2CCN[C@H]3CS(=O)(=O)C[C@H]32)n1 | 8.37%
COc1cncc(-n2ccnc2-c2ccc(C(=O)O)s2)c1 | -10%
C[C@@H]1CN(C(=O)c2nc3sccn3c2-c2ncc[nH]2)C[C@H](C)O1 | -7.22%
Cc1cc(=O)[nH]c(NCCNC(=O)c2ccccc2N2CCCC2)n1 | 32.3%
O=S1(=O)C[C@@H]2[C@H](C1)N(Cc1ncc[nH]1)CCN2C/C=C/c1ccccc1 | -7.45%
COc1ccc(OC)c(-n2cnnc2C)c1 | -3.42%
COc1cc(C(=O)N(C)C(C)Cc2cc(C)ccn2)ccn1 (centres undefined) | 25.8%
CCn1c(CC2CCN(S(=O)(=O)Cc3ccccc3)CC2)nn(C)c1=O | -9.61%
Cc1nsc(NC(=O)NC2(CN3CCCCC3)CCCCC2)n1 | -9.47%
CC(C)OCCNC(=O)C1CCC(=O)N(C2CCCC2)C1 (centres undefined) | -4.22%

Compound | cytotoxicity at 70.5 h
CCC(CO)N(Cc1cccs1)C(=O)Cc1ccncc1 (centres undefined) | -8.11%
COc1ccc(CCN2C(=O)O[C@@H]3CN(C)C[C@@H]32)cc1 | -10.7%
CCN(CCO)Cc1cn(-c2cccc(F)c2)nc1-c1ccc(C)o1 | -14.6%
O=S1(=O)CCC(n2nc(Cc3cccs3)nc2-c2cnccn2)C1 (centres undefined) | 0.418%
COc1cccc2ccc(N3CCC(O)(c4ccc(C)cn4)CC3)nc12 | -21.5%
Cc1cc(CN2CCN(C(=O)C3CCC3)[C@@H]3CS(=O)(=O)C[C@@H]32)ccc1F | 1.76%
COc1ccccc1C(=O)N1CCN(C(=O)CCn2ccnc2)CC1 | -5.01%
CC(NC(=O)c1cc2n(n1)CCCN(C)C2)c1cn2ncsc2n1 (centres undefined) | -7.44%
CSCC[C@@H](CO)Nc1ccc(-c2nc(C3CC3)no2)cn1 | -3.18%
CCn1ccnc1CN1CCCC(CO)(CCCc2ccccc2)C1 (centres undefined) | -0.875%
NC(=O)CCn1cc(CNCCCc2ccncc2)c2ccccc21 | -3.77%
Cc1nc(-c2cccnc2)ncc1C(=O)N1CCC(c2ncc[nH]2)CC1 | -3.5%
COC(=O)c1cc(OCC2CCC2)cc(C(=O)N[C@H]2CCCC[C@@H]2O)c1 | -8.47%
COC1CCCOC12CCN(C(=O)NCc1ccco1)CC2 (centres undefined) | -1.17%
COc1ccc(CNC(=O)Cc2csc(C(C)=O)c2)cc1 | -8.65%
CC(C)n1cnnc1Cn1ccc2ncccc2c1=O | 1%
CCCN1CCN(C(=O)c2ccc(Cl)cn2)[C@H]2CS(=O)(=O)C[C@H]21 | -10.4%
CN(Cc1ccc(-n2cccn2)cc1)C[C@@H]1CCCN2CCCC[C@H]12 | 24.9%
CN1CCC(C(=O)NCCC2CN(c3cnn(C)c(=O)c3)CCO2)CC1 (centres undefined) | -7.81%
c1cc2c(cc1-c1noc3c1CN(C1CCC1)CC3)OCO2 | 1.77%
CC(C)N1CCCC(C(=O)NCc2noc(Cc3ccccc3)n2)C1 (centres undefined) | 8.23%
Cc1cc(C(=O)N2CCc3c(nc(-c4ccncc4)[nH]c3=O)C2)no1 | 2.99%

Compound | cytotoxicity at 70.5 h
Cc1ccc(NC(=O)N2CCCC(O)(CO)CC2)cc1Cl (centres undefined) | -4.85%
CC(C)CCN1CCNC(=O)C1CC(=O)NCCc1cc(O)ncn1 (centres undefined) | -11%
CCC1CN(Cc2nnc(C(C)C)o2)CCC(=O)N1Cc1ccccc1 (centres undefined) | -10.7%
CN(Cc1cnccn1)CC1CCOc2ccccc2C1 (centres undefined) | -12.2%
CCc1cnc(N)nc1NCCC(=O)NC1CCCCC1 | -25.4%
O=C(O)[C@@H]1CN(Cc2ccc3nsnc3c2)C[C@H]1c1cccnc1 | 1.8%
O=C(C1CC1)N1C[C@H]2CNC[C@@]2(C(=O)NCCCc2ccccc2)C1 | -1.55%
N#Cc1cccc(CN2C(=O)C3(CCNCC3)Nc3ccccc32)c1 | 13.4%
Cc1ncnc(N2CCCN(c3nc4ccccc4s3)CC2)c1C | 7.7%
Cc1ncsc1CN1CCN(C)C2(CCC(=O)N(CCO)CC2)C1 (centres undefined) | 3.92%
CNc1ncc(-c2csc(NC(=O)C[C@H]3COCCN3)n2)cn1 | -11.4%
CC(C)N(C)Cc1cncc2c1CCN(C1CCOCC1)C2 | -6.55%
O=C(c1ccsc1)N1CCO[C@@H]2CN(Cc3nccs3)C[C@@H]2C1 | -3.17%
Cc1cnc(N2CCC3(CCN(Cc4csc(C)n4)C3=O)C2)nc1 (centres undefined) | -5.87%
Cn1cccc1C(=O)N1CCO[C@@H]2CN(Cc3nccs3)C[C@@H]2C1 | -6.7%
Cc1noc(C)c1CN1CCOCC12CCN(c1ncccn1)CC2 | -8.87%
N#Cc1ccc(N2CCC3(CC2)CC(N2CCOCC2)CO3)cc1 (centres undefined) | -6.28%
CN(C)C(=O)Cn1c2c(ccc1=O)CCN(Cc1cnn(C)c1)CC2 | 2.17%
CN(C)CCOCc1cncc2c1CCN(C(=O)C1CCOCC1)C2 | -6.54%
Cc1noc(C)c1CN1CCn2cc(CNc3ccccn3)nc2C1 | 5.28%
CN(C)CCOCc1cncc2c1CCN(C1CCOCC1)C2 | -11.2%

Source: ChEMBL document CHEMBL3507680, “University of Dundee, Gates Library screen for HepG2 cell viability”
